According to patent publication US7420037B2, “Heat shock protein-based vaccines and immunotherapies” (Antigenics Inc., priority 2003, dated 2008):
Where “and” joins values, the source holds several entries; their conditions need not be identical. Identical values can stand only once. No end group written: not given here.

Each substance was assayed on recombinant human or murine heat shock protein 70 (hsp70) (assay: not given). Settings: not given.
Format: binding

Substance	increase in affinity for HSP70 (lower dissociation constant) over SIINFEKLGSGHWDFAWPW [fold]
SIINFEKLgsgNLLRLTGW (SIINFEKLGSGNLLRLTGW; not fully specified; printed as SIINFEKLgsgNLLRLTGW) [OVA + NLLRLTGW]	15

Same assay, conditions: pH 8; read-out: Kd, peptide (epitope), heat shock protein-binding domain: None

Substance	Kd [µM]
ALFDIESKV [PSMA P2, reference compound]	145
YMLDLQPETT [HPV16 E7 (11-20), reference compound]	91
IMDQVPFSV [Gp100 (“IMD”), reference compound]	2560
SIINFEKL [OVA, reference compound]	279
TLGIVCPI [HPV16 E7 (86-93), reference compound]	187
YMDGTMSQV [Tyrosinase (“YMD”), reference compound]	204

Same assay, conditions: read-out: Epitope alone: Affinity for hsp70

Substance	Kd [µM]
KASEKIFYV [reference compound]	57
SLFNTVATL [reference compound]	35
GLYDGMEHL [reference compound]	48
YLEPGPVTV [reference compound]	71
IMDQVPFSV [Gp100 (“IMD”), reference compound]	2570
AIIRILQQL [reference compound]	93
SVYDFFVWL [reference compound]	81
ILKEPVHGV [reference compound]	83
ALKHRAYEL [reference compound]	97
VLDVGDAYFSV [reference compound]	110
AFHHVAREL [reference compound]	84
VIYQYMDDL [reference compound]	91
YMDGTMSQV [Tyrosinase (“YMD”), reference compound]	209

Same assay, conditions: read-out: Hybrid antigen comprising epitope: Affinity for hsp70

Substance	Kd [µM]
NLLRLTGWGSGRGYVYQGL	1.4
GLYDGMEHLGSGNLLRLTGW	1.1
ILKEPVHGVGSGNLLRLTGW	1.2
VIYQYMDDLGSGNLLRLTGW	1.7
VLDVGDAYFSVGSGNLLRLTGW	2
SVYDFFVWLGSGNLLRLTGW	2.9
YLEPGPVTVGSGNLLRLTGW	2
ALKHRAYELGSGNLLRLTGW	1.1
NLLRLTGWGSGSHNFEKL	1.6
AIIRILQQLGSGNLLRLTGW	0.6
YMDGTMSQVgsgNLLRLTGW	1.8
SLLMWITQVGSGNLLRLTGW	2.2
AFHHVARELGSGNLLRLTGW	2.1
KASEKIFYVGSGNLLRLTGW	1.4
SLFNTVATLGSGNLLRLTGW	1.9
SLYNTVATLGSGNLLRLTGW	1.8
IMDQVPFSVgsgNLLRLTGW (IMDQVPFSVGSGNLLRLTGW; not fully specified; printed as IMDQVPFSVgsgNLLRLTGW)	0.9

Same assay, conditions: read-out: Kd, heat shock protein-binding domain: FYQLALTW; pH 8; read-out: Kd, heat shock protein-binding domain: […]

Substance	Kd [µM]
FYQLALTW	5.9
SIINFEKLgsgFYQLALTW (SIINFEKLGSGFYQLALTW; not fully specified; printed as SIINFEKLgsgFYQLALTW) [OVA + FYQLALTW]	1.43

Same assay, conditions: read-out: Kd, heat shock protein-binding domain: HWDFAWPW; pH 8; read-out: Kd, heat shock protein-binding domain: […]

Substance	Kd [µM]
YMDGTMSQVgsgHWDFAWPW (YMDGTMSQVGSGHWDFAWPW)	24
HWDFAWPWgsgYMDGTMSQV (HWDFAWPWGSGYMDGTMSQV; not fully specified; printed as HWDFAWPWgsgYMDGTMSQV)	29
YMLDLQPETTgsgHWDFAWPW (YMLDLQPETTGSGHWDFAWPW) [HPV16 E7 (11-20) + HWDFAWPW]	27
IMDQVPFSVgsgHWDFAWPW (IMDQVPFSVGSGHWDFAWPW; not fully specified; printed as IMDQVPFSVgsgHWDFAWPW)	155
TLGIVCPIgsgHWDFAWPW (TLGIVCPIGSGHWDFAWPW) [HPV16 E7 (86-93) + HWDFAWPW]	9.1
ALFDIESKVgsgHWDFAWPW (ALFDIESKVGSGHWDFAWPW; not fully specified; printed as ALFDIESKVgsgHWDFAWPW) [PSMA P2 + HWDFAWPW]	22
SIINFEKLgsgHWDFAWPW (SIINFEKLGSGHWDFAWPW; not fully specified; printed as SIINFEKLgsgHWDFAWPW) [OVA + HWDFAWPW]	40
HWDFAWPW	120
HWDFAWPWgsgSIINFEKL (HWDFAWPWGSGSIINFEKL; not fully specified; printed as HWDFAWPWgsgSIINFEKL)	4.3

Same assay, conditions: read-out: Kd, heat shock protein-binding domain: NLLRLTGW; pH 8; read-out: Kd, heat shock protein-binding domain: […]

Substance	Kd [µM]
PSMA P2 + NLLRLTGW	1.3
TLGIVCPIgsgNLLRLTGW [HPV16 E7 (86-93) + NLLRLTGW]	5.2
YMDGTMSQVgsgNLLRLTGW	2.65
SIINFEKLgsgNLLRLTGW (SIINFEKLGSGNLLRLTGW; not fully specified; printed as SIINFEKLgsgNLLRLTGW) [OVA + NLLRLTGW]	1.2
NLLRLTGW	1.85
IMDQVPFSVgsgNLLRLTGW (IMDQVPFSVGSGNLLRLTGW; not fully specified; printed as IMDQVPFSVgsgNLLRLTGW)	3.1

Same assay, conditions: read-out: Kd, heat shock protein-binding domain: RKLFFNLRW; pH 8; read-out: Kd, heat shock protein-binding domain: […]

Substance	Kd [µM]
RKLFFNLRW	15
SIINFEKLgsgRKLFFNLRW (SIINFEKLGSGRKLFFNLRW; not fully specified; printed as SIINFEKLgsgRKLFFNLRW) [OVA + RKLFFNLRW]	7

Each substance was assayed on SIINFEKL-pulsed target cells (assay: 51Cr-release CTL assay after immunization of mice). Settings: Example 14; SIINFEKL-pulsed target cells.
Format: in vivo
Protocol: Mice were immunized s.c. at the base of the tail with the complexes listed above—[…] (SEQ ID NO:359) alone was added at a five-fold molar excess of the […] (SEQ ID NO:358) dose. 7 d later, spleens were harvested and stimulated in vitro with […] (SEQ ID NO:357) peptide. Values within bars represent the amount of epitope delivered. 100:1 E:T ratio shown.
In the same experiment, a ^51Cr-release assay as described above was done using […]-pulsed target cells. At an effector to target cell ratio of 200:1, the percent killing results obtained are shown in the far right column of the following table.

Substance	CTL assay: % killing at 200:1 E/T [%]
Hsp70: recombinant human heat shock protein 70	0

Same assay, conditions: Example 16; SIINFEKL-pulsed target cells

Substance	CTL assay: % killing at 200:1 E/T [%]
Hsp70: recombinant human heat shock protein 70	8.45

Same assay, conditions: binding domain peptide alone added at five-fold molar excess

Substance	effect on induction of an immune response by HSP70: SIINFEKLGSGHWDFAWPW mixture
NLLRLTGW	prevent induction of an immune response

The substances below were run on γ-interferon-secreting CD8+ cells (assay: γ-interferon-secreting CD8+ cells after immunization of mice and in vitro restimulation with […]). Settings: mice immunized day 0, splenocytes day 7, restimulated 5 days; FIG. 1.
Format: in vivo
Protocol: Non-covalent complexes of recombinant human heat shock protein 70 and hybrid antigens of the invention were evaluated for biological activity in vivo. To evaluate the induction of an antigen-specific immune response, mice were immunized on day 0 with one of the following: (1) 100 μg human hsp70; (2) a noncovalent complex of 100 μg hsp70 and 15 μg […] (SEQ ID NO:357) (OVA peptide); (3) a noncovalent complex of 100 μg hsp70 and 15 μg […] (SEQ ID NO:368) (N-terminal OVA peptide, C-terminal heat shock protein binding domain […] (SEQ ID NO:358), GSG linker in between); and (4) a noncovalent complex of […] and 15 μg […] (SEQ ID NO:367) (N-terminal OVA peptide, C-terminal heat shock protein binding domain […] (SEQ ID NO:359), GSG linker in between).
On day 7, splenocytes were obtained from the immunized animals and were restimulated with peptide ([…]) (SEQ ID NO:357) in vitro for 5 days, after which the percent of γ-interferon-secreting CD8+ cells was determined.

Substance	immune response: percent of γ-interferon-secreting CD8+ cells
Hsp70: recombinant human heat shock protein 70	low level of response

Each substance was assayed on CD8+ T cells (assay: not given). Settings: mouse, in vivo.
Parameters: species or system mice

Substance	Number of Spots, Con A Positive control	Number of Spots, Con A positive control	Number of Spots, Medium control	Number of Spots, SIINFEKL	Number of spots, Con A positive control	Number of spots, Medium control	Number of spots, SIINFEKL	Number of spots, Unpulsed control	Number of spots, VSV control
Hsp70: recombinant human heat shock protein 70	965	834	1.50 and 1.00	0.33	552 spots per 300,000 CD8 T cells	0.00 spots per 300,000 CD8 T cells	0.67 spots per 300,000 CD8 T cells	0.50 spots per 300,000 CD8 T cells	1.00 spots per 300,000 CD8 T cells

Same assay, conditions: mouse, in vivo, sc

Substance	Number of Spots, SIINFEKL
Hsp70: recombinant human heat shock protein 70	0.00
